Data as given in US20230390171A1, “DEODORANT COMPOSITIONS COMPRISING LIPOPHILIC CARBOXYLIC ACIDS” (The Procter & Gamble Company, priority 2022, published 2023).
≈ marks a conversion by molar mass, not a printed value. Read-outs that look alike come from different tables or passages of the source.

What was measured:
S. epi = test: Minimum Inhibitory Concentration (MIC) of various carboxylic acids; format: cell-based; conditions: for potential to inhibit bacteria at an acidic pH: Table 1
Experimental: The following MIC (Minimum Inhibitory Concentration) was done on various carboxylic acids. […] In this case, the MIC was tested in two different growth media. […] The MIC or minimum inhibitory concentration test determines antimicrobial activity of a material against a specific bacteria. The most commonly employed methods are the tube dilution method and agar dilution method. Test products that are not clear or precipitate the growth media are tested by agar dilution method which is similar to the tube dilution method except dilutions are plated on agar. The tube dilution test is the standard method for determining levels of microbial resistance to an antimicrobial agent. Serial dilutions of the test agent are made in a liquid microbial growth medium which is inoculated with a standardized number of organisms and incubated for a prescribed time. The lowest concentration (highest dilution) of test agent preventing appearance of turbidity (growth) is considered to be the minimal/minimum inhibitory concentration (MIC). At this dilution the test agent is bacteriostatic.

S. epidermidis = test: Finished Product Soleris Method (detection time, resistance to growth of bacteria); format: cell-based; conditions: Table 3; 1.5% acid in clear gel, 1:10 dilution
Experimental: The products shown in examples 1-14 in Table 2 were tested for their resistance to the growth of bacteria by the Finished Product Soleris Method in a 1:10 dilution with artificial eccrine, pH 6, non-stabilized as provided by Pickering Solutions.
The products shown in examples 15-30 in Table 5 were tested for their resistance to the growth of bacteria by the Finished Product Soleris Method in a 1:10 dilution with artificial eccrine, pH 6, non-stabilized as provided by Pickering Solutions.
The products shown in examples 31-34 in table 8 were tested for their resistance to the growth of bacteria by the Finished Product Soleris Method in a 1:10 dilution with artificial eccrine, pH 6, non-stabilized as provided by Pickering Solutions.
Sample preparation is done in the following manner. The product to be tested is weighed into a vial at a ratio of 1 part product to 10 parts Artificial Eccrine, custom pH 6, non-stabilized as obtained by Pickering Laboratories (cat. No. 1700-0023). In some cases where products have a higher hostility, the dilution in a particular study may be 1 part deodorant product to 100 parts Artificial Eccrine, custom pH 6, non-stabilized. Products are heated to 72° C. for 30 minutes to melt solid products and facilitate dispersion into the artificial eccrine. […] There may be some insoluble media present after dispersion. The dilutions remainder of the procedure is described below in “Analyzing via Soleris”.
• S. epidermidis grown overnight on tryptic soy agar (37 C) • Colony from agar is suspended in 25 ml tryptic soy broth in baffled flask, and incubated overnight on shaking platform (37 C) • 1 ml of overnight culture is diluted into 9 ml of sterile H2O (this serves as the inoculum for experimental formulas) • For testing liquid products, 5 ml of experimental formula transferred to 15 ml conical tube. For testing solid formulations, a 48 or 96-well tissue culture plates is used, with each well containing 100 ul of solidified formulations. Alternately, for solid formulations, collect […] and apply 10-20 g of water and let sit at least 1 hour. […]

[1] = growth media pH 4.2, read-out: MIC S. epi pH 4.2
[2] = growth media pH 7.2, read-out: MIC S. epi pH 7.2

Row | Structure (SMILES) | MIC (S. epi; [1]) [µg/mL] | MIC (S. epi; [2]) [µg/mL] | MIC S. epi pH 4.2 (S. epi; growth media pH 4.2) [ppm] | MIC S. epi pH 7.2 (S. epi; growth media pH 7.2) [ppm] | potential to inhibit bacteria at an acidic pH (S. epi) | ability to prevent the growth of bacteria (S. epidermidis)
1 | CCCCCCCC(=O)Oc1ccccc1C(=O)O [Capryloyl Salicylic Acid] | 4 (≈ 15.1 µM) | 125 (≈ 473 µM) | – | – | greatest potential to inhibit bacteria at an acidic pH | –
2 | O=C(O)CCCCCCCC(=O)O [Azelaic Acid, reference compound] | 125 (≈ 664 µM) | > 500 | – | – | greatest potential to inhibit bacteria at an acidic pH | –
3 | O=C(O)c1ccc(O)c(O)c1 [Protocatechuic Acid] | 500 (≈ 3240 µM) | > 500 | – | – | – | –
4 | O=C(O)c1ccccc1O [salicylic acid, reference compound] | – | – | – | – | – | strong ability to prevent the growth of bacteria

Further lines, with some results ahead:

Row | MIC (S. epi; [1]) [µg/mL] | MIC (S. epi; [2]) [µg/mL] | MIC S. epi pH 4.2 (S. epi; growth media pH 4.2) [ppm] | MIC S. epi pH 7.2 (S. epi; growth media pH 7.2) [ppm] | Structure (SMILES) | potential to inhibit bacteria at an acidic pH (S. epi) | ability to prevent the growth of bacteria (S. epidermidis)
5 | 312 (≈ 2050 µM) | > 2500 | – | – | O=C(O)C(O)c1ccccc1 (stereo not shown) [Mandelic Acid] | greatest potential to inhibit bacteria at an acidic pH | strong ability to prevent the growth of bacteria
6 | – | – | 15.6 | >2500 | CCCCCCCCC(O)C(=O)O (stereo not shown) [Hydroxycapric Acid] | greatest potential to inhibit bacteria at an acidic pH | strong ability to prevent the growth of bacteria
7 | > 500 | > 500 | – | – | O=c1cc(CO)occ1O [Kojic Acid] | – | –
